According to patent US20260022142A1, “MACROCYCLIC IMMUNOMODULATORS” (Bristol-Myers Squibb Company, priority 2022, published 2026):
Bridge positions count the residues as written; N and C are the ends. Square brackets hold non-standard residues; d marks the D form. Peptide text beside a SMILES is read from it. * marks the point of attachment. ξ: configuration not given here. ξPhe(4-guanidino) = N=C(N)Nc1ccc(CC(N)C(=O)O)cc1; Phe(3-CONH2) = NC(=O)c1cccc(C[C@H](N)C(=O)O)c1; Bip = N[CH](Cc1ccc(-c2ccccc2)cc1)C(=O)O; Phe(3-Me) = Cc1cccc(C[C@H](N)C(=O)O)c1; NH(CH2)12COOH = O=C(O)CCCCCCCCCCCCN*; Cha = N[CH](CC1CCCCC1)C(=O)O; Ile(3ξ) = CCC(C)[C@H](N)C(=O)O; 4Pal = N[CH](Cc1ccncc1)C(=O)O; Thr(3ξ) = CC(O)[C@H](N)C(=O)O; 12Ado = NCCCCCCCCCCCC(=O)O; dOrn = NCCC[C@@H](N)C(=O)O; Carboxymethyl = O=C(O)C*; Orn = NCCC[CH](N)C(=O)O; Aun = NCCCCCCCCCCC(=O)O; Dab = NCC[CH](N)C(=O)O; AEEA = NCCOCCOCC(=O)O

What follows are molecules tested against T1, PD-1/PD-L1 interaction (PE-labeled human PD-L1-Ig binding to Jurkat cell line over-expressing human PD-1) (Homo sapiens, UniProt Q15116) (assay: Jurkat-PD-1 Cell Binding High-Content Screening Assay (CBA)). Settings: Jurkat cell line over-expressing human PD-1; PE-labeled PD-L1-Ig 20 nM final; read-out: Jurkat hPD1-PDL1 IC50.
T1 construct: expressed in transfected cells; host or cells: Jurkat
T1 sequence (Q15116 25-288): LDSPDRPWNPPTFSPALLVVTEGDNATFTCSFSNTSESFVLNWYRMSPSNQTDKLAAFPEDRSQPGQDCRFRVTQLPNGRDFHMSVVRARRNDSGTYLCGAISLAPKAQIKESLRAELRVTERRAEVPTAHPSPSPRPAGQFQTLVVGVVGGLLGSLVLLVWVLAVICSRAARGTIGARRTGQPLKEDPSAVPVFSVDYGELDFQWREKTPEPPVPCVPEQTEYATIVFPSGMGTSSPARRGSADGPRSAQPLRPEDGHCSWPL
Assay type: cell-based
Summary of the method: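 Binding of fluorescent PD-L1-Ig (phycoerythrin on Ig tag, 20 nM final, 1 h) measured by high-content imaging of fixed, Hoechst-counterstained Jurkat-hPD-1 cells. Compound added 2 h at 37° C beforehand, in DMEM with 10% fetal calf serum.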
Work on `CCC(C)C1NC(=O)C(Cc2ccc(-c3ccccc3)cc2)NC(=O)C(CC(C)C)NC(=O)C(Cc2c[nH]c3ccccc23)NC(=O)C(CC(=O)O)NC(=O)C(Cc2ccc(OCC(=O)O)cc2)NC(=O)C(Cc2ccncc2)NC(=O)CSCC(C(=O)NCCOCCOCC(=O)NC(CCCN)C(=O)NCCCCCCCCCCC(=O)O)NC(=O)C(C(C)O)NC(=O)C(C(C)C)NC(=O)C(CC2CCCCC2)NC(=O)C(CCN)NC(=O)C(CC(C)C)NC(=O)C(CCCN)NC1=O` (centres unmarked) [Compound 3089] ({CH2CO}-[4Pal]Y(Carboxymethyl)DWL[Bip]I[Orn]L[Dab][Cha]VTC[AEEA][Orn][Aun]-OH; thioether N-14; configuration not given here) yielded an IC50 of 39.2 nM. `CCC(C)[C@@H]1NC(=O)[C@H](Cc2ccc(-c3ccccc3)cc2)NC(=O)[C@H](C(C)C)NC(=O)[C@H](Cc2c[nH]c3ccccc23)NC(=O)[C@H](CC(=O)O)NC(=O)[C@H](Cc2ccc(OCC(=O)O)cc2)NC(=O)[C@H](C(C)O)NC(=O)CSC[C@@H](C(=O)N[C@H](CCCN)C(=O)NCCOCCOCC(=O)NCCCCCCCCCCC(=O)O)NC(=O)[C@H](CO)NC(=O)[C@H](C(C)C)NC(=O)[C@H](CC(C)C)NC(=O)[C@H](CCN)NC(=O)[C@@H](CC(C)C)NC(=O)[C@H](CCCN)NC1=O` (stereo partly drawn) [Compound 3090] ({CH2CO}-[Thr(3ξ)]Y(Carboxymethyl)DWV[Bip][Ile(3ξ)][Orn][dL][Dab]LVSC[dOrn][AEEA][Aun]-OH; thioether N-14) showed an IC50 of 99.8 nM. With `CCC(C)[C@@H]1NC(=O)[C@H](Cc2ccc(-c3ccccc3)cc2)NC(=O)[C@H](C(C)C)NC(=O)[C@H](Cc2cccc(C)c2)NC(=O)[C@H](CC(=O)O)NC(=O)[C@H](Cc2ccc(OCC(=O)O)cc2)NC(=O)[C@H](C(C)O)NC(=O)CSC[C@@H](C(=O)N[C@H](CCN)C(=O)NCCCCCCCCCCC(=O)O)NC(=O)[C@H](C(C)O)NC(=O)[C@H](C(C)C)NC(=O)[C@H](CC2CCCCC2)NC(=O)[C@H](CCN)NC(=O)[C@@H](CC(C)C)NC(=O)[C@H](CCCN)NC1=O` (some centres unmarked) [Compound 3091] the IC50 was 26.9 nM. `CCC(C)[C@@H]1NC(=O)[C@H](Cc2ccc(-c3ccccc3)cc2)NC(=O)[C@H](C(C)C)NC(=O)[C@H](Cc2cccc(C)c2)NC(=O)[C@H](CC(=O)O)NC(=O)[C@H](Cc2ccc(OCC(=O)O)cc2)NC(=O)[C@H](C(C)O)NC(=O)CSC[C@@H](C(=O)N[C@H](CCN)C(=O)NCCCCCCCCCCCC(=O)O)NC(=O)[C@H](C(C)O)NC(=O)[C@H](C(C)C)NC(=O)[C@H](CC2CCCCC2)NC(=O)[C@H](CCN)NC(=O)[C@@H](CC(C)C)NC(=O)[C@H](CCCN)NC1=O` (some centres unmarked) [Compound 3092] showed an IC50 of 22 nM. `CCC(C)[C@@H]1NC(=O)[C@H](Cc2ccc(-c3ccccc3)cc2)NC(=O)[C@H](C(C)C)NC(=O)[C@H](Cc2cccc(C)c2)NC(=O)[C@H](CC(=O)O)NC(=O)[C@H](Cc2ccc(OCC(=O)O)cc2)NC(=O)[C@H](C(C)O)NC(=O)CSC[C@@H](C(=O)N[C@@H](CCN)C(=O)NCCCCCCCCCCCCC(=O)O)NC(=O)[C@H](CO)NC(=O)[C@H](C(C)C)NC(=O)[C@H](CC2CCCCC2)NC(=O)[C@H](CCN)NC(=O)[C@@H](CC(C)C)NC(=O)[C@H](CCCN)NC1=O` (stereo partly drawn) [Compound 3093] ({CH2CO}-[Thr(3ξ)]Y(Carboxymethyl)D[Phe(3-Me)]V[Bip][Ile(3ξ)][Orn][dL][Dab][Cha]VSC[Dab]-{NH(CH2)12COOH}; thioether N-14) showed an IC50 of 50.1 nM. For `CCC(C)[C@@H]1NC(=O)[C@H](Cc2ccc(-c3ccccc3)cc2)NC(=O)[C@H](C(C)C)NC(=O)[C@H](Cc2cccc(C)c2)NC(=O)[C@H](CC(=O)O)NC(=O)[C@H](Cc2ccc(OCC(=O)O)cc2)NC(=O)[C@H](C(C)O)NC(=O)CSC[C@@H](C(=O)NCCOCCOCC(=O)N[C@@H](CCCCN)C(=O)NCCCCCCCCCCCC(=O)O)NC(=O)[C@H](C(C)O)NC(=O)[C@H](C(C)C)NC(=O)[C@H](CC2CCCCC2)NC(=O)[C@H](CCN)NC(=O)[C@@H](CC(C)C)NC(=O)[C@H](CCCN)NC1=O` (stereo partly drawn) [Compound 3095] ({CH2CO}-[Thr(3ξ)]Y(Carboxymethyl)D[Phe(3-Me)]V[Bip][Ile(3ξ)][Orn][dL][Dab][Cha]V[Thr(3ξ)]C[AEEA]K[12Ado]-OH; thioether N-14), the IC50 was 10.1 nM. Work on `CCC(C)[C@@H]1NC(=O)[C@H](Cc2ccc(-c3ccccc3)cc2)NC(=O)[C@H](C(C)C)NC(=O)[C@H](Cc2c[nH]c3ccccc23)NC(=O)[C@H](CC(=O)O)NC(=O)[C@H](Cc2ccc(OCC(=O)O)cc2)NC(=O)[C@H](CCN)NC(=O)CSC[C@@H](C(=O)NCCOCCOCC(=O)N[C@@H](CCCCN)C(=O)NCCCCCCCCCCCC(=O)O)NC(=O)[C@H](C(C)O)NC(=O)[C@H](C(C)C)NC(=O)[C@H](CC2CCCCC2)NC(=O)[C@H](CCN)NC(=O)[C@@H](CC(C)C)NC(=O)[C@H](CCCN)NC1=O` (stereo partly drawn) [Compound 3096] ({CH2CO}-[Dab]Y(Carboxymethyl)DWV[Bip][Ile(3ξ)][Orn][dL][Dab][Cha]V[Thr(3ξ)]C[AEEA]K[12Ado]-OH; thioether N-14) yielded an IC50 of 12.1 nM. Molecule `CCC(C)[C@@H]1NC(=O)[C@H](Cc2ccc(-c3ccccc3)cc2)NC(=O)[C@H](C(C)C)NC(=O)[C@H](Cc2c[nH]c3ccccc23)NC(=O)[C@H](CC(=O)O)NC(=O)[C@H](Cc2ccc(OCC(=O)O)cc2)NC(=O)[C@H](C(C)O)NC(=O)CSC[C@@H](C(=O)N[C@@H](CCCN)C(=O)NCCCCCCCCCCCC(=O)O)NC(=O)[C@H](C(C)O)NC(=O)[C@H](C(C)C)NC(=O)[C@H](CC2CCCCC2)NC(=O)[C@H](CCN)NC(=O)[C@@H](CC(C)C)NC(=O)[C@H](CCCN)NC1=O` (stereo partly drawn) [Compound 3097] ({CH2CO}-[Thr(3ξ)]Y(Carboxymethyl)DWV[Bip][Ile(3ξ)][Orn][dL][Dab][Cha]V[Thr(3ξ)]C[Orn][12Ado]-OH; thioether N-14) has an IC50 of 22.8 nM. Molecule `CCC(C)[C@@H]1NC(=O)[C@H](Cc2ccc(-c3ccccc3)cc2)NC(=O)[C@H](C(C)C)NC(=O)[C@H](Cc2cccc(C)c2)NC(=O)[C@H](CC(=O)O)NC(=O)[C@H](Cc2ccc(OCC(=O)O)cc2)NC(=O)[C@H](C(C)O)NC(=O)CSC[C@@H](C(=O)N[C@@H](CCCN)C(=O)NCCCCCCCCCCCC(=O)O)NC(=O)[C@H](C(C)O)NC(=O)[C@H](C(C)C)NC(=O)[C@H](CC2CCCCC2)NC(=O)[C@H](CCN)NC(=O)[C@@H](CC(C)C)NC(=O)[C@H](CCCN)NC1=O` (some centres unmarked) [Compound 3098] has an IC50 of 25.6 nM. For `CCC(C)[C@@H]1NC(=O)[C@H](Cc2ccc(-c3ccccc3)cc2)NC(=O)[C@H](C(C)C)NC(=O)[C@H](Cc2c[nH]c3ccccc23)NC(=O)[C@H](CC(=O)O)NC(=O)[C@H](Cc2ccc(OCC(=O)O)cc2)NC(=O)[C@H](CO)NC(=O)CSC[C@@H](C(=O)N[C@@H](CCCN)C(=O)NCCCCCCCCCCC(=O)O)NC(=O)[C@H](C(C)O)NC(=O)[C@H](C(C)C)NC(=O)[C@H](CC2CCCCC2)NC(=O)[C@H](CCN)NC(=O)[C@@H](CC(C)C)NC(=O)[C@H](CCCN)NC1=O` (stereo partly drawn) [Compound 3099] ({CH2CO}-SY(Carboxymethyl)DWV[Bip][Ile(3ξ)][Orn][dL][Dab][Cha]V[Thr(3ξ)]C[Orn][Aun]-OH; thioether N-14), the IC50 was 19.1 nM. `CCC(C)[C@@H]1NC(=O)[C@H](CC2CCCCC2)NC(=O)[C@H](CCN)NC(=O)[C@@H](CC(C)C)NC(=O)[C@H](CCCN)NC(=O)[C@H](C(C)CC)NC(=O)[C@H](Cc2ccc(-c3ccccc3)cc2)NC(=O)[C@H](CC(C)C)NC(=O)[C@H](Cc2c[nH]c3ccccc23)NC(=O)[C@H](CC(=O)O)NC(=O)[C@H](Cc2ccc(OCC(=O)O)cc2)NC(=O)[C@H](Cc2cccc(C(N)=O)c2)NC(=O)CSC[C@@H](C(=O)N[C@@H](CC(N)=O)C(=O)NCCOCCOCC(=O)NCCCCCCCCCCC(=O)O)NC(=O)[C@H](CO)NC1=O` (stereo partly drawn) [Compound 3116] ({CH2CO}-[Phe(3-CONH2)]Y(Carboxymethyl)DWL[Bip][Ile(3ξ)][Orn][dL][Dab][Cha][Ile(3ξ)]SCN[AEEA][Aun]-OH; thioether N-14) gave an IC50 of 43.4 nM. With `CCC(C)[C@@H]1NC(=O)[C@H](CC2CCCCC2)NC(=O)[C@H](CCN)NC(=O)[C@@H](CC(C)C)NC(=O)[C@H](CCCN)NC(=O)[C@H](C(C)CC)NC(=O)[C@H](Cc2ccc(-c3ccccc3)cc2)NC(=O)[C@H](CC(C)C)NC(=O)[C@H](Cc2c[nH]c3ccccc23)NC(=O)[C@H](CC(=O)O)NC(=O)[C@H](Cc2ccc(OCC(=O)O)cc2)NC(=O)C(Cc2ccc(N=C(N)N)cc2)NC(=O)CSC[C@@H](C(=O)N[C@@H](CC(N)=O)C(=O)NCCOCCOCC(=O)NCCCCCCCCCCC(=O)O)NC(=O)[C@H](CO)NC1=O` (stereo partly drawn) [Compound 3117] ({CH2CO}-[ξPhe(4-guanidino)]Y(Carboxymethyl)DWL[Bip][Ile(3ξ)][Orn][dL][Dab][Cha][Ile(3ξ)]SCN[AEEA][Aun]-OH; thioether N-14) the IC50 was 160 nM. In the case of `CCC(C)[C@@H]1NC(=O)[C@H](CC2CCCCC2)NC(=O)[C@H](CCN)NC(=O)[C@@H](CC(C)C)NC(=O)[C@H](CCCN)NC(=O)[C@H](C(C)CC)NC(=O)[C@H](Cc2ccc(-c3ccccc3)cc2)NC(=O)[C@H](C(C)CC)NC(=O)[C@H](Cc2c[nH]c3ccccc23)NC(=O)[C@H](CC(=O)O)NC(=O)[C@H](Cc2ccc(OCC(=O)O)cc2)NC(=O)[C@H](C(C)O)NC(=O)CSC[C@@H](C(=O)N[C@H](CC(N)=O)C(=O)NCCOCCOCC(=O)N2CCC[C@@H]2C(=O)NCCCCCCCCCCC(=O)O)NC(=O)[C@H](CO)NC1=O` (stereo partly drawn) [Compound 3118] ({CH2CO}-[Thr(3ξ)]Y(Carboxymethyl)DW[Ile(3ξ)][Bip][Ile(3ξ)][Orn][dL][Dab][Cha][Ile(3ξ)]SC[dN][AEEA][dP][Aun]-OH; thioether N-14), the IC50 is reported as 30.4 nM. For `CCC(C)[C@@H]1NC(=O)[C@H](CC2CCCCC2)NC(=O)[C@H](CCN)NC(=O)[C@@H](CC(C)C)NC(=O)[C@H](CCCN)NC(=O)[C@H](C(C)CC)NC(=O)[C@H](Cc2ccc(-c3ccccc3)cc2)NC(=O)[C@H](C(C)CC)NC(=O)[C@H](Cc2c[nH]c3ccccc23)NC(=O)[C@H](CC(=O)O)NC(=O)[C@H](Cc2ccc(OCC(=O)O)cc2)NC(=O)[C@H](C(C)O)NC(=O)CSC[C@@H](C(=O)N[C@H](CC(N)=O)C(=O)NCCOCCOCC(=O)N[C@@H](Cc2c[nH]cn2)C(=O)NCCCCCCCCCCC(=O)O)NC(=O)[C@H](CO)NC1=O` (stereo partly drawn) [Compound 3119] ({CH2CO}-[Thr(3ξ)]Y(Carboxymethyl)DW[Ile(3ξ)][Bip][Ile(3ξ)][Orn][dL][Dab][Cha][Ile(3ξ)]SC[dN][AEEA]H[Aun]-OH; thioether N-14), the IC50 was 24.6 nM.
